The source of these data is patent US8822691B2, “Pesticidal carboxamides” (Bayer CropScience AG, priority 2009, dated 2014).

Read-outs that look alike come from different tables or passages of the source.

Common to all, as to format: in vivo
The test system of test [1] is Spodoptera litura. The experiment in a line: Test against tobacco cutworm (Spodoptera litura) larvae, leaf dip. To be noted: active compound concentration of 100 ppm, third instar larvae on sweet potato leaves, after 7 days; for pest or weed control at 100 ppm: foliar, 168 h, read-out: insecticidal activity. As for the experimental part: (§1) Unless not mentioned otherwise, the test solutions were prepared as follows:
(§2) Containing as solvent: Dimethylformamide, 3 parts by weight; and as emulsifier: Polyoxyethylene alkyl phenyl ether, 1 part by weight
(§3) To prepare the test solution, 1 part by weight of an active compound is mixed with the above-mentioned amount of solvent containing the above-mentioned amount of emulsifier, and the mixture is diluted with water to the desired concentration.
Leaves of sweet potato were immersed in the test solution at the appropriate concentration, and the leaves were dried in air. The leaves were then placed in a petri dish having a diameter of 9 cm, and ten Spodoptera litura at third instar larvae were released therein. The petri dishes were placed in a temperature-controlled chamber at 25° C. After 2 days and 4 days more sweet potato leaves were added. After 7 days, the number of dead larvae was counted to calculate the insecticidal activity. An insecticidal activity of 100% means that all larvae were killed, whereas an insecticidal activity of 0% means that no larva was killed. In the current test, the results of two petri dishes for each treatment were averaged.

Test [2] has as its system Aulacophora femoralis. The test is described as follows: Test against cucurbit leaf beetle (Aulacophora femoralis), leaf dip. The conditions noted are these: for pest or weed control at 500 ppm: Aulacophora, foliar, 168 h, read-out: insecticidal activity. As to the method:
as §1, §2, §3
Leaves of cucumber were immersed in the test solution at the appropriate concentration, and the leaves were dried in air. The leaves were then put in a plastic cup containing sterilized black soil and five Aulacophora femoralis at second instar larvae were released in the cup. The cups were placed in a temperature-controlled chamber at 25° C. After 7 days, the number of dead larvae was counted, and thus the insecticidal activity was calculated. An insecticidal activity of 100% means that all larvae were killed, whereas an insecticidal activity of 0% means that no larva was killed.

The subject of test [3] is Tetranychus urticae. The test is described as follows: Test against two-spotted spider mite (Tetranychus urticae), spray. To be noted: active compound concentration of 500 ppm; adult mites on kidney bean; after 7 days. As to the method: as §1, §2, §3
50 to 100 adult mites of Tetranychus urticae were inoculated to leaves of kidney bean at two-leaf stage planted in a pot of 6 cm in diameter. After one day, test solution at the appropriate concentration was sprayed thereon in a sufficient amount using a spray gun. After the spraying, the plant pot was placed inside a greenhouse, and after 7 days, the acaricidal activity was calculated. An acaricidal activity of 100% means that all mites were killed, whereas an acaricidal activity of 0% means that no mite was killed.

Setting [4] is: active compound concentration of 500 ppm, second instar larvae on cucumber leaves, after 7 days.

Consider `Cc1cc(C(F)(C(F)(F)F)C(F)(F)F)cc(C)c1NC(=O)c1ccc2nccc(Br)c2c1` [2-13], for which the insecticidal activity in test [1] and in test [2] (setting [4]) was 100% each time.

On to `Cc1cc(C(F)(C(F)(F)F)C(F)(F)F)cc(C)c1NC(=O)c1ccc2nc(Br)ccc2c1` [2-18], for which, in test [2] (setting [4]), the insecticidal activity is 100%.

On to `Cc1cc(C(F)(C(F)(F)F)C(F)(F)F)cc(C(C)C)c1NC(=O)c1ccc2c(ccc[n+]2[O-])c1` [2-36], for which, in test [2] (setting [4]), the insecticidal activity is reported as 100%.

As for `Cc1cc(C(F)(C(F)(F)F)C(F)(F)F)cc(C(C)C)c1NC(=O)c1ccc2nc(C#N)ccc2c1` [2-37], the insecticidal activity in test [1] and in test [2] (setting [4]) was 100% each time.

Take `CC(C)c1cc(C(F)(C(F)(F)F)C(F)(F)F)cc(C(C)C)c1NC(=O)c1ccc2c(ccc[n+]2[O-])c1` [2-57]: the insecticidal activity in test [2] (setting [4]) came out at 100%.

As for `O=C(Nc1c(Cl)cc(C(F)(C(F)(F)F)C(F)(F)F)cc1Cl)c1ccc2ncccc2c1` [2-59], in test [2] (setting [4]), the insecticidal activity worked out at 100%.

For the molecule `N#Cc1ccc2cc(C(=O)Nc3c(Cl)cc(C(F)(C(F)(F)F)C(F)(F)F)cc3Cl)ccc2n1` [2-61], the insecticidal activity in test [1] and in test [2] (setting [4]) was 100% each time.

As to `O=C(Nc1c(I)cc(C(F)(C(F)(F)F)C(F)(F)F)cc1I)c1ccc2c(ccc[n+]2[O-])c1` [2-68], the insecticidal activity in test [1] and in test [2] (setting [4]) was 100% throughout.

Turning to `CCOC(c1cc(C)c(NC(=O)c2ccc3ncccc3c2)c(CC)c1)(C(F)(F)F)C(F)(F)F` [2-72], the acaricidal activity in test [3] was 100%.

Turning to `CCOC(c1cc(C)c(NC(=O)c2ccc3nc(C#N)ccc3c2)c(CC)c1)(C(F)(F)F)C(F)(F)F` [2-74], the insecticidal activity in test [1] and in test [2] (setting [4]) was 100% in each case.

Take `CCc1cc(C(Oc2ccc(Cl)cc2)(C(F)(F)F)C(F)(F)F)cc(C)c1NC(=O)c1ccc2ncccc2c1` [2-78]: the insecticidal activity in test [1] and in test [2] (setting [4]) was 100% each time.

With `Cc1cc(C(F)(C(F)(F)F)C(F)(F)C(F)(F)F)cc(C)c1NC(=O)c1ccc2ncccc2c1` (centres unmarked) [2-85], the acaricidal activity in test [3] is 100%.

Consider `CCc1cc(C(F)(C(F)(F)F)C(F)(F)C(F)(F)F)cc(C)c1NC(=O)c1ccc2c(ccc[n+]2[O-])c1` (centres unmarked) [2-89], for which the insecticidal activity in test [2] (setting [4]) was 100%.

In the case of `CCCc1cc(C(F)(C(F)(F)F)C(F)(F)C(F)(F)F)cc(I)c1NC(=O)c1ccc2ncccc2c1` (centres unmarked) [2-102], the insecticidal activity in test [1] came to 100%.

With `CCCc1cc(C(F)(C(F)(F)F)C(F)(F)C(F)(F)F)cc(I)c1NC(=O)c1ccc2c(ccc[n+]2[O-])c1` (centres unmarked) [2-103], the insecticidal activity in test [1] is recorded as 100%.

As for `CCCc1cc(C(F)(C(F)(F)F)C(F)(F)C(F)(F)F)cc(I)c1NC(=O)c1ccc2nc(C#N)ccc2c1` (centres unmarked) [2-104], the insecticidal activity in test [1] and in test [2] (setting [4]) was 100% in each case.

The molecule `O=C(Nc1c(I)cc(C(F)(C(F)(F)F)C(F)(F)C(F)(F)F)cc1I)c1ccc2ncccc2c1` (centres unmarked) [2-111] returned an insecticidal activity in test [1] of 100%.

With `O=C(Nc1c(I)cc(C(F)(C(F)(F)F)C(F)(F)C(F)(F)F)cc1I)c1ccc2c(ccc[n+]2[O-])c1` (centres unmarked) [2-112], the insecticidal activity in test [2] (setting [4]) is listed as 100%.

As to `N#Cc1ccc2cc(C(=O)Nc3c(I)cc(C(F)(C(F)(F)F)C(F)(F)C(F)(F)F)cc3I)ccc2n1` (centres unmarked) [2-113], the insecticidal activity in test [1] and in test [2] (setting [4]) was 100% in each case.

The molecule `CCc1cc(C2(F)C(F)(F)C(F)(F)C(F)(F)C(F)(F)C2(F)F)cc(C)c1NC(=O)c1ccc2ncccc2c1` [2-128] came in with an insecticidal activity in test [1] of 100%.

Regarding `CCc1cc(C2(F)C(F)(F)C(F)(F)C(F)(F)C(F)(F)C2(F)F)cc(C)c1NC(=O)c1ccc2c(ccc[n+]2[O-])c1` [2-129], the insecticidal activity in test [1] amounted to 100%.

In the case of `N#Cc1ccc2cc(C(=O)Nc3c(Br)cc(OC(F)(F)F)cc3Br)ccc2n1` [2-139], in test [2] (setting [4]), the insecticidal activity is 100%.

In the case of `N#Cc1ccc2cc(C(=O)Nc3c(Br)cc(SC(F)(F)F)cc3Br)ccc2n1` [2-140], the insecticidal activity in test [1] and in test [2] (setting [4]) was 100% in each case.

`N#Cc1ccc2cc(C(=O)Nc3c(I)cc(C(F)(C(F)(F)F)C(F)(F)F)cc3SC(F)(F)F)ccc2n1` [2-161] showed an insecticidal activity in test [1] of 100%.

With `CCCc1cc(C(F)(C(F)(F)F)C(F)(F)C(F)(F)F)cc(Br)c1NC(=O)c1ccc2ncccc2c1` (centres unmarked) [2-162], the insecticidal activity in test [1] and in test [2] (setting [4]) was 100% each time.

For the molecule `CCCc1cc(C(F)(C(F)(F)F)C(F)(F)C(F)(F)F)cc(Br)c1NC(=O)c1ccc2nc(C#N)ccc2c1` (centres unmarked) [2-164], the insecticidal activity in test [1] and in test [2] (setting [4]) was 100% throughout.

`CC(C)c1cc(C(F)(C(F)(F)F)C(F)(F)C(F)(F)F)cc(I)c1NC(=O)c1ccc2nc(C#N)ccc2c1` (centres unmarked) [2-167]: the insecticidal activity in test [1] and in test [2] (setting [4]) was 100% throughout.

In the case of `N#Cc1ccc2cc(C(=O)Nc3c(Br)cc(C(F)(C(F)(F)F)C(F)(F)C(F)(F)F)cc3SC(F)(F)F)ccc2n1` (centres unmarked) [2-185], the insecticidal activity in test [1] and in test [2] (setting [4]) was 100% each time.

Take `O=C(Nc1c(I)cc(C(F)(C(F)(F)F)C(F)(F)C(F)(F)F)cc1SC(F)(F)F)c1ccc2ncccc2c1` (centres unmarked) [2-186]: the insecticidal activity in test [1] was found to be 100%.

For the molecule `N#Cc1ccc2cc(C(=O)Nc3c(I)cc(C(F)(C(F)(F)F)C(F)(F)C(F)(F)F)cc3SC(F)(F)F)ccc2n1` (centres unmarked) [2-188], the insecticidal activity in test [1] and in test [2] (setting [4]) was 100% each time.

In turn, `CCc1cc(C(F)(C(F)(F)F)C(F)(F)Br)cc(C)c1NC(=O)c1ccc2c(ccc[n+]2[O-])c1` (centres unmarked) [2-193] displayed an insecticidal activity in test [2] (setting [4]) of 100%.

As for `O=C(Nc1c(Br)cc(C(F)(C(F)(F)F)C(F)(F)Br)cc1Br)c1ccc2ncccc2c1` (centres unmarked) [2-195], the insecticidal activity in test [1] and in test [2] (setting [4]) was 100% throughout.

Turning to `O=C(Nc1c(I)cc(C(F)(C(F)(F)F)C(F)(F)Br)cc1I)c1ccc2ncccc2c1` (centres unmarked) [2-198], the insecticidal activity in test [1] was found to be 100%.

For the molecule `N#Cc1ccc2cc(C(=O)Nc3c(I)cc(C(F)(C(F)(F)F)C(F)(F)Br)cc3I)ccc2n1` (centres unmarked) [2-200], the insecticidal activity in test [1] and in test [2] (setting [4]) was 100% in each case.

`N#Cc1ccc2cc(C(=O)Nc3c(Br)cc(C(F)(C(F)(F)F)C(F)(F)C(F)(F)F)cc3Br)ccc2[n+]1[O-]` (centres unmarked) [2-270]: the insecticidal activity in test [1] is listed as 100%.

In test [1], `CCc1cc(C(F)(C(F)(F)F)C(F)(F)C(F)(F)F)cc(C)c1NC(=O)c1ccc(N=c2ssnc2Cl)c(Br)c1` (centres unmarked) [5-4] gave an insecticidal activity of 100%.

In the case of `CCc1cc(C(F)(C(F)(F)F)C(F)(F)F)cc(C)c1NC(=O)c1ccc2cc(C#N)ccc2c1` [Compound No. 1-4, 6-cyano-N-[2-ethyl-4-(1,1,1,2,3,3,3-heptafluoropropan-2-yl)-6-methylphenyl]-2-naphthamide], the pest or weed control at 100 ppm in test [1] amounted to 100%.

For the molecule `Cc1cc(C(F)(C(F)(F)F)C(F)(F)F)cc(C)c1NC(=O)c1ccc2nc(Cl)ccc2c1` [Compound No. 2-17, 2-chloro-N-[4-(1,1,1,2,3,3,3-heptafluoropropan-2-yl)-2,6-dimethylphenyl]quinoline-6-carboxamide], in test [1], the pest or weed control at 100 ppm worked out at 100%. For the same molecule, the pest or weed control at 500 ppm in test [2] (setting [4]) was determined as 100%.

With `Cc1cc(C(F)(C(F)(F)F)C(F)(F)F)cc(C)c1NC(=O)c1ccc2c(ccc(C#N)[n+]2[O-])c1` [Compound No. 2-21], the insecticidal activity in test [1] and in test [2] (setting [4]) was 100% in each case.

In the case of `O=C(Nc1c(Br)cc(C(F)(C(F)(F)F)C(F)(F)F)cc1OC(F)F)c1ccc2ncccc2c1` [Compound No. 2-152, N-[2-bromo-(1,1,1,2,3,3,3-heptafluoropropan-2-yl)-6-(difluoromethoxy)phenyl]quinoline-6-carboxamide], the pest or weed control at 100 ppm in test [1] stood at 100%. Moreover, the pest or weed control at 500 ppm in test [2] (in Cucumis sativus) was 100%.

As for `O=C(Nc1c(I)cc(C(F)(C(F)(F)F)C(F)(F)C(F)(F)F)cc1OC(F)F)c1ccc2c(ccc[n+]2[O-])c1` (centres unmarked) [Compound No. 2-175, N-[2-(difluoromethoxy)-6-iodo-4-(1,1,1,2,3,3,4,4,4-nonafluorobutan-2-yl)phenyl]quinoline-6-carboxamide N-oxide], the pest or weed control at 100 ppm in test [1] is 100%. In test [2] (setting [4]), the pest or weed control at 500 ppm was 100%.

Consider `O=C(Nc1c(Cl)cc(C(F)(C(F)(F)F)C(F)(F)F)cc1OC(F)F)c1ccc2ncccc2c1` [Compound No. 2-229, N-[2-chloro-(1,1,1,2,3,3,3-heptafluoropropan-2-yl)-6-(difluoromethoxy)phenyl]quinoline-6-carboxamide], for which the pest or weed control at 500 ppm in test [2] (setting [4]) is 100%.
